{
  "source": "PubChem BioAssay (NCI)",
  "assay_in_all_cases": "DTP human tumour cell line panel, 48 h",
  "key": {"OVCAR-8 ovarian": {"system": "OVCAR-8 ovarian"}, "MALME-3M melanoma": {"system": "MALME-3M melanoma"}, "CCRF-CEM leukemia": {"system": "CCRF-CEM leukemia"}, "MDA-MB-231 breast": {"system": "MDA-MB-231 breast"}, "OVCAR-3 ovarian": {"system": "OVCAR-3 ovarian"}, "SN12C renal": {"system": "SN12C renal"}, "SK-MEL-5 melanoma": {"system": "SK-MEL-5 melanoma"}, "HOP-92 NSCLC": {"system": "HOP-92 NSCLC"}, "SK-MEL-28 melanoma": {"system": "SK-MEL-28 melanoma"}, "M14 melanoma": {"system": "M14 melanoma"}, "MDA-MB-435": {"system": "MDA-MB-435"}, "EKVX NSCLC": {"system": "EKVX NSCLC"}, "ACHN renal": {"system": "ACHN renal"}, "UACC-62 melanoma": {"system": "UACC-62 melanoma"}, "HOP-62 NSCLC": {"system": "HOP-62 NSCLC"}, "SNB-75 CNS": {"system": "SNB-75 CNS"}, "U251 CNS": {"system": "U251 CNS"}, "TK-10 renal": {"system": "TK-10 renal"}, "HCT-15 colon": {"system": "HCT-15 colon"}, "SK-OV-3 ovarian": {"system": "SK-OV-3 ovarian"}, "UACC-257 melanoma": {"system": "UACC-257 melanoma"}, "RPMI-8226 leukemia": {"system": "RPMI-8226 leukemia"}, "NCI-H226 lung": {"system": "NCI-H226 lung"}, "SNB-19 CNS": {"system": "SNB-19 CNS"}, "LOX IMVI melanoma": {"system": "LOX IMVI melanoma"}, "NCI-H460 lung": {"system": "NCI-H460 lung"}, "IGROV1 ovarian": {"system": "IGROV1 ovarian"}, "KM12 colon": {"system": "KM12 colon"}, "HT29 colon": {"system": "HT29 colon"}, "SF-539 CNS": {"system": "SF-539 CNS"}},
  "note": "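Compound exposure: 48 hours, 5 concentrations, 96-well plates. Here, GI50 denotes the concentration required for 50% inhibition of growth. TGI: concentration producing complete growth inhibition.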",
  "data": [
    {"smiles": "NS(=O)(=O)c1ccc(NC(=O)CSc2ccc(-c3ccc(Cl)cc3)nn2)c(Br)c1", "values": [
      {"measurement": "GI50", "setting": "OVCAR-8 ovarian", "value": 10.3, "unit": "µM"},
      {"measurement": "TGI", "setting": "OVCAR-8 ovarian", "value": 24.7, "unit": "µM"},
      {"measurement": "GI50", "setting": "MALME-3M melanoma", "value": 9.36, "unit": "µM"},
      {"measurement": "TGI", "setting": "MALME-3M melanoma", "value": 22.4, "unit": "µM"},
      {"measurement": "GI50", "setting": "CCRF-CEM leukemia", "value": "> 100", "unit": "µM"},
      {"measurement": "TGI", "setting": "CCRF-CEM leukemia", "value": "> 100", "unit": "µM"},
      {"measurement": "GI50", "setting": "MDA-MB-231 breast", "value": 3.7, "unit": "µM"},
      {"measurement": "TGI", "setting": "MDA-MB-231 breast", "value": 14.6, "unit": "µM"},
      {"measurement": "GI50", "setting": "OVCAR-3 ovarian", "value": 12.9, "unit": "µM"},
      {"measurement": "TGI", "setting": "OVCAR-3 ovarian", "value": 27.6, "unit": "µM"},
      {"measurement": "GI50", "setting": "SN12C renal", "value": 26.1, "unit": "µM"},
      {"measurement": "TGI", "setting": "SN12C renal", "value": 83.3, "unit": "µM"},
      {"measurement": "GI50", "setting": "SK-MEL-5 melanoma", "value": 10.2, "unit": "µM"},
      {"measurement": "TGI", "setting": "SK-MEL-5 melanoma", "value": 21.9, "unit": "µM"},
      {"measurement": "GI50", "setting": "HOP-92 NSCLC", "value": 3.96, "unit": "µM"},
      {"measurement": "TGI", "setting": "HOP-92 NSCLC", "value": 19.2, "unit": "µM"},
      {"measurement": "GI50", "setting": "SK-MEL-28 melanoma", "value": 12.3, "unit": "µM"},
      {"measurement": "TGI", "setting": "SK-MEL-28 melanoma", "value": 28.8, "unit": "µM"},
      {"measurement": "GI50", "setting": "M14 melanoma", "value": 32.4, "unit": "µM"},
      {"measurement": "TGI", "setting": "M14 melanoma", "value": "> 100", "unit": "µM"},
      {"measurement": "GI50", "setting": "MDA-MB-435", "value": 32.6, "unit": "µM"},
      {"measurement": "TGI", "setting": "MDA-MB-435", "value": "> 100", "unit": "µM"},
      {"measurement": "GI50", "setting": "EKVX NSCLC", "value": 11, "unit": "µM"},
      {"measurement": "TGI", "setting": "EKVX NSCLC", "value": 25.8, "unit": "µM"},
      {"measurement": "GI50", "setting": "ACHN renal", "value": 6.92, "unit": "µM"},
      {"measurement": "TGI", "setting": "ACHN renal", "value": 19.6, "unit": "µM"},
      {"measurement": "GI50", "setting": "UACC-62 melanoma", "value": 13.7, "unit": "µM"},
      {"measurement": "TGI", "setting": "UACC-62 melanoma", "value": 34.1, "unit": "µM"},
      {"measurement": "GI50", "setting": "HOP-62 NSCLC", "value": 2.93, "unit": "µM"},
      {"measurement": "TGI", "setting": "HOP-62 NSCLC", "value": 10.8, "unit": "µM"},
      {"measurement": "GI50", "setting": "SNB-75 CNS", "value": 1.79, "unit": "µM"},
      {"measurement": "TGI", "setting": "SNB-75 CNS", "value": 15, "unit": "µM"},
      {"measurement": "GI50", "setting": "U251 CNS", "value": 5.15, "unit": "µM"},
      {"measurement": "TGI", "setting": "U251 CNS", "value": 21.7, "unit": "µM"},
      {"measurement": "GI50", "setting": "TK-10 renal", "value": 18, "unit": "µM"},
      {"measurement": "TGI", "setting": "TK-10 renal", "value": 38.9, "unit": "µM"},
      {"measurement": "GI50", "setting": "HCT-15 colon", "value": 11.8, "unit": "µM"},
      {"measurement": "TGI", "setting": "HCT-15 colon", "value": 25.8, "unit": "µM"},
      {"measurement": "GI50", "setting": "SK-OV-3 ovarian", "value": 4.39, "unit": "µM"},
      {"measurement": "TGI", "setting": "SK-OV-3 ovarian", "value": 15.1, "unit": "µM"},
      {"measurement": "GI50", "setting": "UACC-257 melanoma", "value": 31.4, "unit": "µM"},
      {"measurement": "TGI", "setting": "UACC-257 melanoma", "value": "> 100", "unit": "µM"},
      {"measurement": "GI50", "setting": "RPMI-8226 leukemia", "value": 96.9, "unit": "µM"},
      {"measurement": "TGI", "setting": "RPMI-8226 leukemia", "value": "> 100", "unit": "µM"},
      {"measurement": "GI50", "setting": "NCI-H226 lung", "value": 2.62, "unit": "µM"},
      {"measurement": "TGI", "setting": "NCI-H226 lung", "value": 9.4, "unit": "µM"},
      {"measurement": "GI50", "setting": "SNB-19 CNS", "value": 3.75, "unit": "µM"},
      {"measurement": "TGI", "setting": "SNB-19 CNS", "value": 14.9, "unit": "µM"},
      {"measurement": "GI50", "setting": "LOX IMVI melanoma", "value": 10.4, "unit": "µM"},
      {"measurement": "TGI", "setting": "LOX IMVI melanoma", "value": 24.2, "unit": "µM"},
      {"measurement": "GI50", "setting": "NCI-H460 lung", "value": 7.22, "unit": "µM"},
      {"measurement": "TGI", "setting": "NCI-H460 lung", "value": 22.3, "unit": "µM"},
      {"measurement": "GI50", "setting": "IGROV1 ovarian", "value": 23.3, "unit": "µM"},
      {"measurement": "TGI", "setting": "IGROV1 ovarian", "value": 76.4, "unit": "µM"},
      {"measurement": "GI50", "setting": "KM12 colon", "value": 36.3, "unit": "µM"},
      {"measurement": "TGI", "setting": "KM12 colon", "value": "> 100", "unit": "µM"},
      {"measurement": "GI50", "setting": "HT29 colon", "value": 15.9, "unit": "µM"},
      {"measurement": "TGI", "setting": "HT29 colon", "value": 46.8, "unit": "µM"},
      {"measurement": "GI50", "setting": "SF-539 CNS", "value": 4.15, "unit": "µM"}
    ]}
  ]
}
